Experimental data: US20020028807A1, “Non-nucleoside reverse transcriptase inhibitors” (priority 2000, published 2002)

Key:
HIV-1 RT V106A = target: T1, HIV-1 RT V106A (Human immunodeficiency virus type 1 group M subtype B, UniProt P03366, V705A); experiment: Reverse transcriptase (RT) assay, V106A mutant; type: biochemical
T1 construct: an HIV RT clone pKRT2 containing only the RT p66 gene regulated by the lac operon/trc promoter; made in house; host or cells: E. coli JM109, vector pKK233-2
Description: (§1) Among the enzymes for which Human Immunodeficiency Virus (HIV-1) encodes is a reverse transcriptase (1), so-named because it transcribes a DNA copy from an RNA template. This activity can be quantitatively measured in a cell-free enzyme assay and is based upon the observation that reverse transcriptase is able to use a synthetic template poly r(C) primed with a biotinylated oligo d(G) to transcribe a radio-labelled DNA strand utilising 3H-dGTP as a substrate. The assay described below utilises the wild-type enzyme (which is the predominant form of the enzyme observed in patients infected with HIV-1) and can also be used with mutant RT enzymes (for example, Y181C, prepared by site-directed mutagenesis in which the tyrosine residue at codon 181 has been replaced by a cysteine residue) in analogous assay conditions. This assay allows compounds to be evaluated for their effectiveness at inhibiting the mutant enzymes.
(§2) Some HIV-1 IIIB clone BH10 RT mutants were provided by Dr. C.-K. Shih (Boehringer Ingelheim Pharmaceutials Inc., U.S.A.) in the vector pKK233-2 (Pharmacia). Briefly an HIV RT clone pKRT2 containing only the RT p66 gene regulated by the lac operon/trc promoter was obtained from Dr. W. Summers (Yale University) (2). A variety of specific amino acid substitutions were introduced into the wild-type RT gene by site-directed mutagenesis. RT clones were subcloned into the pKK233-2 bacterial expression vector. Clones provided included wild-type, Val106Ala, Tyr181Cys, Tyr188Cys, Tyr188Leu, Gly190Ala and Pro236Leu. Others were made in-house by site-directed mutagenesis of the pKK233-2 RT clones including Lys103Asn, Lys103Asn/Tyr181Cys, Lys103Asn/Leu100Ile, Lys103Asn/Pro225His, and Lys103Asn/Val108Ile.
(§3) Purification of recombinant reverse transcriptase was performed using a combination of methods previously described (3). A single colony from a fresh plate of transformed JM109 cells was used to initiate growth of a pre-culture grown o/n at 37° C. Two liters of growth medium were inoculated with this pre-culture. At OD600˜1.5 (5-6 h at 37° C.), RT gene expression was induced with IPTG (1 mM final), and the fermentation was continued for a few more hours at 37° C. After centrifugation, supernatants were discarded while cell pellets were pooled and stored at −80° C. until purification. Cells were thawed at 4° C. overnight and suspended in lysis buffer (MES 50 mM pH 6, EDTA 1 mM, 10% v/v glyerol, 0.02% w/v OBG, 0.02% w/v sodium azide). Lysozyme was added and the mixture was incubated on ice for 40 minutes. After homogenization using a bounce in presence of lysozyme and sonication, the cells were centrifuged for 30 minutes. Supernatant (S1) was saved and stored at 4° C. The centrifuged pellet was resuspended in extraction buffer (MES 50 mM pH 6, KPO4 50 mM pH 6, KCl 100 mM, 10% v/v glycerol, 0.02% w/v OBG, 0.02% w/v sodium axide) and stirred for 30 minutes at 4° C. This second mixture was centrifuged again and the supernatant (S2) was saved. The above procedure was repeated 2 more times saving supernatants S3 and S4 and one last extraction was performed overnight (S5). Polymin P (0.005% final) was added to the combined supernatants to remove nucleic acids. This solution was stirred for 75 minutes at 4° C. and centrifuged for 1 h. The supernatant (SS1) was precipitated on ice with 20% w/v ammonium sulfate and stirred for 1 h at 4° C. The mixture was then centrifuged and the resulting supernatant (SS2) was precipitated with additional 40% w/v ammonium sulfate (60% total), stirred for 1 h and centrifuged again. The final pellet (P1) was stored overnight at 4° C. before undergoing purification the following day. All steps of the purification were performed at 4° C. unless otherwise stated.
(§4) Pellet (P1) was resuspended into MES 50 mM pH 6, KPO4 10 mM pH 6, KCl 100 mM, 10% v/v glycerol, 0.02% w/v OBG, 0.02% w/v sodium azide. The suspension was dialysis against the same buffer overnight using 12-14 kD MWCO dialysis tubing. […]

HIV-1 RT K103N/L100I = target: T2, HIV-1 RT K103N/L100I (Human immunodeficiency virus type 1 group M subtype B, UniProt P03366, K702N/L699I); experiment: Reverse transcriptase (RT) assay, K103N/L100I mutant; type: biochemical
T2 construct: an HIV RT clone pKRT2 containing only the RT p66 gene regulated by the lac operon/trc promoter; made in house; host or cells: E. coli JM109, vector pKK233-2
Description: as §1, §2, §3, §4

HIV-1 RT G190A = target: T3, HIV-1 RT G190A (Human immunodeficiency virus type 1 group M subtype B, UniProt P03366, G789A); experiment: Reverse transcriptase (RT) assay, G190A mutant; type: biochemical
T3 construct: an HIV RT clone pKRT2 containing only the RT p66 gene regulated by the lac operon/trc promoter; made in house; host or cells: E. coli JM109, vector pKK233-2
Description: as §1, §2, §3, §4

HIV-1 RT Y188L = target: T4, HIV-1 RT Y188L (Human immunodeficiency virus type 1 group M subtype B, UniProt P03366, Y787L); experiment: Reverse transcriptase (RT) assay, Y188L mutant; type: biochemical
T4 construct: an HIV RT clone pKRT2 containing only the RT p66 gene regulated by the lac operon/trc promoter; made in house; host or cells: E. coli JM109, vector pKK233-2
Description: as §1, §2, §3, §4

HIV-1 RT wild-type (WT) = target: T5, HIV-1 RT wild-type (WT) (Human immunodeficiency virus type 1 group M subtype B, UniProt P03366); experiment: Reverse transcriptase (RT) assay, wild-type enzyme; type: biochemical
T5 construct: an HIV RT clone pKRT2 containing only the RT p66 gene regulated by the lac operon/trc promoter; made in house; host or cells: E. coli JM109, vector pKK233-2
Description: as §1, §2, §3, §4

HIV-1 RT K103N/Y181C = target: T6, HIV-1 RT K103N/Y181C (Human immunodeficiency virus type 1 group M subtype B, UniProt P03366, K702N/Y780C); experiment: Reverse transcriptase (RT) assay, K103N/Y181C mutant; type: biochemical
T6 construct: an HIV RT clone pKRT2 containing only the RT p66 gene regulated by the lac operon/trc promoter; made in house; host or cells: E. coli JM109, vector pKK233-2
Description: as §1, §2, §3, §4

[1] = tested on: HIV coding for wild-type reverse transcriptase (WT RT); experiment: ELISA (p24) assay of HIV replication in C8166 cell culture, wild-type RT virus; type: cell-based, HIV-1; details: Human immunodeficiency virus 1, C8166, 72 h, read-out: EC50 WT RT
Protocol: (§5) Compounds of the invention were tested for their ability to inhibit HIV replication in cell culture in a 96-well plate assay. Complete RPMI 1640, consisting of RPMI 1640+10% fetal bovine serum, 10 μg/ml gentamycin and 10 μM β-mercaptoethanol was used for dilution of the compound as well as cell growth medium. The T lymphocyte cell line C8166 was infected at a multiplicity of infection of 0.001 with viruses coding for wild-type and mutant reverse transcriptase. Cells were then incubated for three days in the presence of serial dilutions of the compounds of the invention. The supernatant was pooled from eight replica wells and the concentration of extracellular p24 was determined using a commercially available HIV-1 p24 antigen assay kit (Beckman-Coulter®). The level of inhibition (% inhibition) was calculated with the following equation: [formula]

[2] = tested on: HIV coding for mutant reverse transcriptase Y188L; experiment: ELISA (p24) assay of HIV replication in C8166 cell culture, Y188L virus; type: cell-based, HIV-1; details: Human immunodeficiency virus 1, C8166, 72 h, read-out: EC50 Y188L
Protocol: as §5

[3] = tested on: HIV coding for mutant reverse transcriptase K103N/Y181C; experiment: ELISA (p24) assay of HIV replication in C8166 cell culture, K103N/Y181C virus; type: cell-based, HIV-1; details: Human immunodeficiency virus 1, C8166, 72 h, read-out: EC50 K103N/Y181C
Protocol: as §5

HIV-1 RT K103N/P225H = target: T7, HIV-1 RT K103N/P225H (Human immunodeficiency virus type 1 group M subtype B, UniProt P03366, K702N/P824H); experiment: Reverse transcriptase (RT) assay, K103N/P225H mutant; type: biochemical
T7 construct: an HIV RT clone pKRT2 containing only the RT p66 gene regulated by the lac operon/trc promoter; made in house; host or cells: E. coli JM109, vector pKK233-2
Description: as §1, §2, §3, §4

HIV-1 RT Y181C = target: T8, HIV-1 RT Y181C (Human immunodeficiency virus type 1 group M subtype B, UniProt P03366, Y780C); experiment: Reverse transcriptase (RT) assay, Y181C mutant; type: biochemical
T8 construct: an HIV RT clone pKRT2 containing only the RT p66 gene regulated by the lac operon/trc promoter; made in house; host or cells: E. coli JM109, vector pKK233-2
Description: as §1, §2, §3, §4

[4] = tested on: HIV coding for mutant reverse transcriptase V106A; experiment: ELISA (p24) assay of HIV replication in C8166 cell culture, V106A virus; type: cell-based, HIV-1; details: Human immunodeficiency virus 1, C8166, 72 h, read-out: EC50 V106A
Protocol: as §5

HIV-1 RT K103N/V108I = target: T9, HIV-1 RT K103N/V108I (Human immunodeficiency virus type 1 group M subtype B, UniProt P03366, K702N/V707I); experiment: Reverse transcriptase (RT) assay, K103N/V108I mutant; type: biochemical
T9 construct: an HIV RT clone pKRT2 containing only the RT p66 gene regulated by the lac operon/trc promoter; made in house; host or cells: E. coli JM109, vector pKK233-2
Description: as §1, §2, §3, §4

HIV-1 RT K103N = target: T10, HIV-1 RT K103N (Human immunodeficiency virus type 1 group M subtype B, UniProt P03366, K702N); experiment: Reverse transcriptase (RT) assay, K103N mutant; type: biochemical
T10 construct: an HIV RT clone pKRT2 containing only the RT p66 gene regulated by the lac operon/trc promoter; made in house; host or cells: E. coli JM109, vector pKK233-2
Description: as §1, §2, §3, §4

HIV-1 RT Y188C = target: T11, HIV-1 RT Y188C (Human immunodeficiency virus type 1 group M subtype B, UniProt P03366, Y787C); experiment: Reverse transcriptase (RT) assay, Y188C mutant; type: biochemical
T11 construct: an HIV RT clone pKRT2 containing only the RT p66 gene regulated by the lac operon/trc promoter; made in house; host or cells: E. coli JM109, vector pKK233-2
Description: as §1, §2, §3, §4

CCN1c2ncc(CCOc3ccnc4ccccc34)cc2C(=O)N(C)c2cccnc21 [compound 24, 5,11-Dihydro-11-ethyl-5-methyl-8-{2-(4-quinolinyloxy)ethyl}-6H-dipyrido[3,2-b:2′,3′-e][1,4]diazepin-6-one]
IC50 (HIV-1 RT V106A): 344 nM
IC50 (HIV-1 RT K103N/L100I): 169 nM
IC50 (HIV-1 RT G190A): 25 nM
IC50 (HIV-1 RT Y188L): 627 nM
IC50 (HIV-1 RT wild-type (WT)): 5.6 nM
IC50 (HIV-1 RT K103N/Y181C): 70 nM

CCN1c2ncc(CCOc3cc[n+]([O-])c4ccccc34)cc2C(=O)Nc2c(C)cc(F)nc21 [compound 9, 5,11-Dihydro-11-ethyl-2-fluoro-4-methyl-8-{2-{(1-oxido-4-quinolinyl)-oxy}ethyl}-6H-dipyrido[3,2-b:2′,3′-e][1,4]diazepin-6-one]
IC50 (HIV-1 RT V106A): 98 nM
EC50 [1]: 0.92 nM
IC50 (HIV-1 RT K103N/L100I): 88 nM
EC50 [2]: 118 nM
EC50 [3]: 7.6 nM
IC50 (HIV-1 RT Y188L): 3390 nM
IC50 (HIV-1 RT K103N/P225H): 25 nM
IC50 (HIV-1 RT wild-type (WT)): 14 nM
IC50 (HIV-1 RT K103N/Y181C): 175 nM
IC50 (HIV-1 RT Y181C): 43 nM
EC50 [4]: 5 nM
IC50 (HIV-1 RT K103N/V108I): 58 nM
IC50 (HIV-1 RT K103N): 23 nM

CCN1C(=O)c2cc(CCOc3ccnc4ccccc34)cnc2N(CC)c2ncccc21 [compound 26, 5,11-Dihydro-5,11-diethyl-8-{2-(4-quinolinyloxy)ethyl}-6H-dipyrido[3,2-b:2′,3′-e][1,4]diazepin-6-one]
IC50 (HIV-1 RT Y188C): 147 nM
IC50 (HIV-1 RT V106A): 1750 nM
EC50 [1]: 2.2 nM
IC50 (HIV-1 RT Y188L): 5200 nM
IC50 (HIV-1 RT K103N/P225H): 85 nM
IC50 (HIV-1 RT wild-type (WT)): 8.9 nM
IC50 (HIV-1 RT K103N/Y181C): 200 nM
IC50 (HIV-1 RT Y181C): 51 nM
IC50 (HIV-1 RT K103N/V108I): 443 nM
IC50 (HIV-1 RT K103N): 40 nM
